Source: patent US20260022142A1, “MACROCYCLIC IMMUNOMODULATORS” (Bristol-Myers Squibb Company, priority 2022, published 2026)
Bridge positions count the residues as written; N and C are the ends. Square brackets hold non-standard residues; d marks the D form. Peptide text beside a SMILES is read from it. * marks the point of attachment. ξ: configuration not given here. Bip = N[C@@H](Cc1ccc(-c2ccccc2)cc1)C(=O)O; Phe(3-Me) = Cc1cccc(C[C@H](N)C(=O)O)c1; Cyclopropanecarbonyl = O=C(C1CC1)*; hArg = N=C(N)NCCCC[C@H](N)C(=O)O; Cha = N[C@@H](CC1CCCCC1)C(=O)O; Cit = NC(=O)NCCC[C@H](N)C(=O)O; Thr(3ξ) = CC(O)[C@H](N)C(=O)O; 12Ado = NCCCCCCCCCCCC(=O)O; hSer = N[C@@H](CCO)C(=O)O; Carboxymethyl = O=C(O)C*; Orn = NCCC[C@H](N)C(=O)O; Aun = NCCCCCCCCCCC(=O)O; Dab = NCC[C@H](N)C(=O)O; Dap = NC[C@H](N)C(=O)O

Molecular target: T1, PD-1/PD-L1 interaction (PE-labeled human PD-L1-Ig binding to Jurkat cell line over-expressing human PD-1) (Homo sapiens, UniProt Q15116)
T1 construct: expressed in transfected cells; host or cells: Jurkat
T1 sequence (Q15116 25-288): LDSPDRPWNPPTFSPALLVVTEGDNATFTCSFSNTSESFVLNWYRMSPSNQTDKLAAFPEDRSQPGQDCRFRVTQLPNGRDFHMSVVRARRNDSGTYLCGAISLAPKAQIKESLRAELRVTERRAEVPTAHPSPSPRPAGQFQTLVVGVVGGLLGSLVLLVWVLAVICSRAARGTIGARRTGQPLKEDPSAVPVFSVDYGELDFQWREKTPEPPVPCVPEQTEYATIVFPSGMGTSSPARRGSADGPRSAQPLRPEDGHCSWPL
Experiment: Jurkat-PD-1 Cell Binding High-Content Screening Assay (CBA)
Format: cell-based
Conditions: Jurkat cell line over-expressing human PD-1; PE-labeled PD-L1-Ig 20 nM final; read-out: Jurkat hPD1-PDL1 IC50
Outline: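 Human PD-L1-Ig carrying a covalent PE label on its Ig tag serves as the probe, applied at 20 nM final to compound-treated (2 h, 37° C) Jurkat-hPD-1 cells in medium with 10% fetal calf serum. After one hour, fixation and nuclear staining precede high-content image analysis.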

| SMILES | IC50 [µM] |
| --- | --- |
| CC(=O)NCCCC[C@H](NC(=O)[C@@H]1CSCC(=O)N[C@@H](CCN)C(=O)N[C@@H](Cc2ccc(OCC(=O)O)cc2)C(=O)N[C@@H](CC(=O)O)C(=O)N[C@@H](Cc2cccc(C)c2)C(=O)N[C@@H](C(C)C)C(=O)N[C@@H](Cc2ccc(-c3ccccc3)cc2)C(=O)N[C@@H](CCCNC(N)=O)C(=O)N[C@@H](CCCN)C(=O)N[C@H](CC(C)C)C(=O)N[C@@H](CN)C(=O)N[C@@H](CC2CCCCC2)C(=O)N[C@@H](C(C)C)C(=O)N[C@@H](C(C)O)C(=O)N1)C(=O)NCCCCCCCCCCC(=O)O (stereo partly drawn) [Compound 3563] ({CH2CO}-[Dab]Y(Carboxymethyl)D[Phe(3-Me)]V[Bip][Cit][Orn][dL][Dap][Cha]V[Thr(3ξ)]CK(Ac)[Aun]-OH; thioether N-14) | 0.0439 |
| Cc1cccc(C[C@@H]2NC(=O)[C@H](CC(=O)O)NC(=O)[C@H](Cc3ccc(OCC(=O)O)cc3)NC(=O)[C@H](CCCNC(=N)N)NC(=O)CSC[C@@H](C(=O)N[C@@H](CCO)C(=O)N[C@@H](CCC(=O)O)C(=O)NCCCCCCCCCCCC(=O)O)NC(=O)[C@H](C(C)O)NC(=O)[C@H](C(C)C)NC(=O)[C@H](CC3CCCCC3)NC(=O)[C@H](CCN)NC(=O)[C@@H](CC(C)C)NC(=O)[C@H](CCCN)NC(=O)[C@H](CCCNC(N)=O)NC(=O)[C@H](Cc3ccc(-c4ccccc4)cc3)NC(=O)[C@H](C(C)C)NC2=O)c1 (stereo partly drawn) [Compound 3564] ({CH2CO}-RY(Carboxymethyl)D[Phe(3-Me)]V[Bip][Cit][Orn][dL][Dab][Cha]V[Thr(3ξ)]C[hSer]E[12Ado]-OH; thioether N-14) | 0.0195 |
| Cc1cccc(C[C@@H]2NC(=O)[C@H](CC(=O)O)NC(=O)[C@H](Cc3ccc(OCC(=O)O)cc3)NC(=O)[C@H](CCCNC(=N)N)NC(=O)CSC[C@@H](C(=O)N[C@@H](CCO)C(=O)NCCCCCCCCCCCC(=O)O)NC(=O)[C@H](C(C)O)NC(=O)[C@H](C(C)C)NC(=O)[C@H](CC3CCCCC3)NC(=O)[C@H](CCN)NC(=O)[C@@H](CC(C)C)NC(=O)[C@H](CCCN)NC(=O)[C@H](CCCNC(N)=O)NC(=O)[C@H](Cc3ccc(-c4ccccc4)cc3)NC(=O)[C@H](C(C)C)NC2=O)c1 (stereo partly drawn) [Compound 3565] ({CH2CO}-RY(Carboxymethyl)D[Phe(3-Me)]V[Bip][Cit][Orn][dL][Dab][Cha]V[Thr(3ξ)]C[hSer][12Ado]-OH; thioether N-14) | 0.0394 |
| Cc1cccc(C[C@@H]2NC(=O)[C@H](CC(=O)O)NC(=O)[C@H](Cc3ccc(OCC(=O)O)cc3)NC(=O)[C@H](CCO)NC(=O)CSC[C@@H](C(=O)N[C@@H](CCO)C(=O)N[C@@H](CO)C(=O)NCCCCCCCCCCCC(=O)O)NC(=O)[C@H](C(C)O)NC(=O)[C@H](C(C)C)NC(=O)[C@H](CC3CCCCC3)NC(=O)[C@H](CCN)NC(=O)[C@@H](CC(C)C)NC(=O)[C@H](CCCN)NC(=O)[C@H](CCCNC(N)=O)NC(=O)[C@H](Cc3ccc(-c4ccccc4)cc3)NC(=O)[C@H](C(C)C)NC2=O)c1 (stereo partly drawn) [Compound 3566] ({CH2CO}-[hSer]Y(Carboxymethyl)D[Phe(3-Me)]V[Bip][Cit][Orn][dL][Dab][Cha]V[Thr(3ξ)]C[hSer]S[12Ado]-OH; thioether N-14) | 0.0192 |
| Cc1cccc(C[C@@H]2NC(=O)[C@H](CC(=O)O)NC(=O)[C@H](Cc3ccc(OCC(=O)O)cc3)NC(=O)[C@H](CCCCNC(=N)N)NC(=O)CSC[C@@H](C(=O)N[C@@H](CCN)C(=O)N[C@@H](CO)C(=O)NCCCCCCCCCCCC(=O)O)NC(=O)[C@H](CO)NC(=O)[C@H](C(C)C)NC(=O)[C@H](CC3CCCCC3)NC(=O)[C@H](CCN)NC(=O)[C@@H](CC(C)C)NC(=O)[C@H](CCCN)NC(=O)[C@H](CCCNC(=N)N)NC(=O)[C@H](Cc3ccc(-c4ccccc4)cc3)NC(=O)[C@H](C(C)C)NC2=O)c1 [Compound 3571] ({CH2CO}-[hArg]Y(Carboxymethyl)D[Phe(3-Me)]V[Bip]R[Orn][dL][Dab][Cha]VSC[Dab]S[12Ado]-OH; thioether N-14) | 0.0169 |
| Cc1cccc(C[C@@H]2NC(=O)[C@H](CC(=O)O)NC(=O)[C@H](Cc3ccc(OCC(=O)O)cc3)NC(=O)[C@H](CCCCNC(=N)N)NC(=O)CSC[C@@H](C(=O)N[C@@H](CCCN)C(=O)N[C@@H](CO)C(=O)NCCCCCCCCCCCC(=O)O)NC(=O)[C@H](CO)NC(=O)[C@H](C(C)C)NC(=O)[C@H](CC3CCCCC3)NC(=O)[C@H](CCN)NC(=O)[C@@H](CC(C)C)NC(=O)[C@H](CCCN)NC(=O)[C@H](CCCNC(=N)N)NC(=O)[C@H](Cc3ccc(-c4ccccc4)cc3)NC(=O)[C@H](C(C)C)NC2=O)c1 [Compound 3576] ({CH2CO}-[hArg]Y(Carboxymethyl)D[Phe(3-Me)]V[Bip]R[Orn][dL][Dab][Cha]VSC[Orn]S[12Ado]-OH; thioether N-14) | 0.0173 |

Second part, the molecule after the results:

| IC50 [µM] | SMILES |
| --- | --- |
| 0.0335 | Cc1cccc(C[C@@H]2NC(=O)[C@H](CC(=O)O)NC(=O)[C@H](Cc3ccc(OCC(=O)O)cc3)NC(=O)[C@H](C(C)O)NC(=O)CSC[C@@H](C(=O)N[C@@H](CCC(=O)O)C(=O)N[C@@H](CO)C(=O)NCCCCCCCCCCC(=O)O)NC(=O)[C@H](C(C)O)NC(=O)[C@H](C(C)C)NC(=O)[C@H](CC3CCCCC3)NC(=O)[C@H](CCN)NC(=O)[C@@H](CC(C)C)NC(=O)[C@H](CCCN)NC(=O)[C@H](CCCNC(N)=O)NC(=O)[C@H](Cc3ccc(-c4ccccc4)cc3)NC(=O)[C@H](C(C)C)NC2=O)c1 (stereo partly drawn) [Compound 3567] ({CH2CO}-[Thr(3ξ)]Y(Carboxymethyl)D[Phe(3-Me)]V[Bip][Cit][Orn][dL][Dab][Cha]V[Thr(3ξ)]CES[Aun]-OH; thioether N-14) |
| 0.0151 | Cc1cccc(C[C@@H]2NC(=O)[C@H](CC(=O)O)NC(=O)[C@H](Cc3ccc(OCC(=O)O)cc3)NC(=O)[C@H](CCCCNC(=N)N)NC(=O)CSC[C@@H](C(=O)N[C@@H](CCCN)C(=O)N[C@@H](CCO)C(=O)NCCCCCCCCCCCC(=O)O)NC(=O)[C@H](C(C)O)NC(=O)[C@H](C(C)C)NC(=O)[C@H](CC3CCCCC3)NC(=O)[C@H](CCN)NC(=O)[C@@H](CC(C)C)NC(=O)[C@H](CCCN)NC(=O)[C@H](CCCNC(N)=O)NC(=O)[C@H](Cc3ccc(-c4ccccc4)cc3)NC(=O)[C@H](C(C)C)NC2=O)c1 (stereo partly drawn) [Compound 3568] ({CH2CO}-[hArg]Y(Carboxymethyl)D[Phe(3-Me)]V[Bip][Cit][Orn][dL][Dab][Cha]V[Thr(3ξ)]C[Orn][hSer][12Ado]-OH; thioether N-14) |
| 0.0236 | Cc1cccc(C[C@@H]2NC(=O)[C@H](CC(=O)O)NC(=O)[C@H](Cc3ccc(OCC(=O)O)cc3)NC(=O)[C@H](CO)NC(=O)CSC[C@@H](C(=O)N[C@@H](CCO)C(=O)N[C@@H](CO)C(=O)NCCCCCCCCCCCC(=O)O)NC(=O)[C@H](C(C)O)NC(=O)[C@H](C(C)C)NC(=O)[C@H](CC3CCCCC3)NC(=O)[C@H](CCN)NC(=O)[C@@H](CC(C)C)NC(=O)[C@H](CCCN)NC(=O)[C@H](CCCNC(N)=O)NC(=O)[C@H](Cc3ccc(-c4ccccc4)cc3)NC(=O)[C@H](C(C)C)NC2=O)c1 (stereo partly drawn) [Compound 3569] ({CH2CO}-SY(Carboxymethyl)D[Phe(3-Me)]V[Bip][Cit][Orn][dL][Dab][Cha]V[Thr(3ξ)]C[hSer]S[12Ado]-OH; thioether N-14) |
| 0.0163 | Cc1cccc(C[C@@H]2NC(=O)[C@H](CC(=O)O)NC(=O)[C@H](Cc3ccc(OCC(=O)O)cc3)NC(=O)[C@H](CCCCNC(=N)N)NC(=O)CSC[C@@H](C(=O)N[C@@H](CCN)C(=O)N[C@@H](CO)C(=O)NCCCCCCCCCCCC(=O)O)NC(=O)[C@H](C(C)O)NC(=O)[C@H](C(C)C)NC(=O)[C@H](CC3CCCCC3)NC(=O)[C@H](CCN)NC(=O)[C@@H](CC(C)C)NC(=O)[C@H](CCCN)NC(=O)[C@H](CCCNC(N)=O)NC(=O)[C@H](Cc3ccc(-c4ccccc4)cc3)NC(=O)[C@H](C(C)C)NC2=O)c1 (stereo partly drawn) [Compound 3570] ({CH2CO}-[hArg]Y(Carboxymethyl)D[Phe(3-Me)]V[Bip][Cit][Orn][dL][Dab][Cha]V[Thr(3ξ)]C[Dab]S[12Ado]-OH; thioether N-14) |
| 0.0261 | Cc1cccc(C[C@@H]2NC(=O)[C@H](CC(=O)O)NC(=O)[C@H](Cc3ccc(OCC(=O)O)cc3)NC(=O)[C@H](CCCNC(=O)C3CC3)NC(=O)CSC[C@@H](C(=O)N[C@@H](CCCN)C(=O)N[C@@H](CO)C(=O)NCCCCCCCCCCCC(=O)O)NC(=O)[C@H](C(C)O)NC(=O)[C@H](C(C)C)NC(=O)[C@H](CC3CCCCC3)NC(=O)[C@H](CCN)NC(=O)[C@@H](CC(C)C)NC(=O)[C@H](CCCN)NC(=O)[C@H](CCCNC(=N)N)NC(=O)[C@H](Cc3ccc(-c4ccccc4)cc3)NC(=O)[C@H](C(C)C)NC2=O)c1 (stereo partly drawn) [Compound 3572] ({CH2CO}-[Orn](Cyclopropanecarbonyl)Y(Carboxymethyl)D[Phe(3-Me)]V[Bip]R[Orn][dL][Dab][Cha]V[Thr(3ξ)]C[Orn]S[12Ado]-OH; thioether N-14) |
| 0.027 | Cc1cccc(C[C@@H]2NC(=O)[C@H](CC(=O)O)NC(=O)[C@H](Cc3ccc(OCC(=O)O)cc3)NC(=O)[C@H](CCCCNC(=N)N)NC(=O)CSC[C@@H](C(=O)N[C@@H](CCCN)C(=O)N[C@@H](CO)C(=O)NCCCCCCCCCCCC(=O)O)NC(=O)[C@H](C(C)O)NC(=O)[C@H](CCO)NC(=O)[C@H](CC3CCCCC3)NC(=O)[C@H](CCN)NC(=O)[C@@H](CC(C)C)NC(=O)[C@H](CCCN)NC(=O)[C@H](CCCNC(=N)N)NC(=O)[C@H](Cc3ccc(-c4ccccc4)cc3)NC(=O)[C@H](C(C)C)NC2=O)c1 (stereo partly drawn) [Compound 3574] ({CH2CO}-[hArg]Y(Carboxymethyl)D[Phe(3-Me)]V[Bip]R[Orn][dL][Dab][Cha][hSer][Thr(3ξ)]C[Orn]S[12Ado]-OH; thioether N-14) |
| 0.0323 | Cc1cccc(C[C@@H]2NC(=O)[C@H](CC(=O)O)NC(=O)[C@H](Cc3ccc(OCC(=O)O)cc3)NC(=O)[C@H](CCCCNC(=N)N)NC(=O)CSC[C@@H](C(=O)N[C@@H](CCCN)C(=O)N[C@@H](CO)C(=O)NCCCCCCCCCCCC(=O)O)NC(=O)[C@H](C(C)O)NC(=O)[C@H](C(C)C)NC(=O)[C@H](CC3CCCCC3)NC(=O)[C@H](CCN)NC(=O)[C@@H](CC(C)C)NC(=O)[C@H](CCCN)NC(=O)[C@H](CCCNC(=N)N)NC(=O)[C@H](Cc3ccc(-c4ccccc4)cc3)NC(=O)[C@H](C(C)C)NC2=O)c1 (stereo partly drawn) [Compound 3575] ({CH2CO}-[hArg]Y(Carboxymethyl)D[Phe(3-Me)]V[Bip]R[Orn][dL][Dab][Cha]V[Thr(3ξ)]C[Orn]S[12Ado]-OH; thioether N-14) |
